The record followed here is patent US20250152734A1, “USES AND FORMULATIONS OF CAMPTOTHECIN (CPT)-CONTAINING NANOPARTICLES” (DANTARI, INC., priority 2022, published 2025).

A short description of this data set: Tolerability of CPT in 3-week mouse xenograft studies (ER2019-09-1B, ER2019-09-1C). In kind it is in vivo. The protocol: This value is determined from the calculated free and total CPT concentrations in the sample. The “% free of total CPT” value provides the clearest indicator of drug substance stability during storage and use. […] The release specification for % free of total CPT in the drug substance is ≤3%. The stability specification for % free of total CPT in the drug substance is ≤5%. These limits are well below prior studies using CPT administered directly as a free drug. In two separate 3-week mouse xenograft studies (ER2019-09-1B, ER2019-09-1C) CPT itself was dosed and well-tolerated at 3 mg/kg which has a human equivalent dose of 9 mg CPT/m2.

Consider `CC[C@@]1(O)C(=O)OCc2c1cc1n(c2=O)Cc2cc3ccccc3nc2-1` [CPT, 20 (S)-camptothecin], for which, where the note is “3-week mouse xenograft studies”, the well-tolerated dose is reported as 3 mg/kg. Further, the “human equivalent dose of tolerated dose” value (mouse, in vivo) stood at 9 mg CPT/m2.
